# US20150218212A1, “FLUORINATED EPOXYKETONE-BASED TETRAPEPTIDE COMPOUNDS AND USES THEREOF AS PROTEASOME INHIBITORS” (FLUORINOV PHARMA INC., priority 2012, published 2015)
# Tests used:
# Format in all cases: cell-based, human
# SNB-19 = assay: NCI screening panel, SNB-19 (CNS Cancer)
# Method: (§1) Representative compounds of Formula I were screened using the National Cancer Institute (NCI) screening panel, which consists of a panel of human tumor cell lines, representing leukemia, melanoma, and cancers of the lung, colon, ovary, breast, prostate and renal system.
# (§2) After 24 h, two plates of each cell line are fixed in situ with TCA, to represent a measurement of the cell population for each cell line at the time of drug addition (Tz). Experimental drugs are solubilised in dimethyl sulfoxide at 400-fold the desired final maximum test concentration and stored frozen prior to use. At the time of drug addition, an aliquot of frozen concentrate is thawed and diluted to twice the desired final maximum test concentration with complete medium containing 50 μg/mL gentamicin. Additional four, 10-fold or ½ log serial dilutions are made to provide a total of five drug concentrations plus control. Aliquots of 100 μl of these different drug dilutions are added to the appropriate microtiter wells already containing 100 μl of medium, resulting in the required final drug concentrations.
# (§3) Following drug addition, the plates are incubated for an additional 48 h at 37° C., 5% CO2, 95% air, and 100% relative humidity. For adherent cells, the assay is terminated by the addition of cold TCA (trichloroacetic acid). Cells are fixed in situ by the gentle addition of 50 μl of cold 50% (w/v) TCA (final concentration, 10% TCA) and incubated for 60 minutes at 4° C. The supernatant is discarded, and the plates are washed five times with tap water and air dried. Sulforhodamine B (SRB) solution (100 μl) at 0.4% (w/v) in 1% acetic acid is added to each well, and plates are incubated for 10 minutes at room temperature. After staining, unbound dye is removed by washing five times with 1% acetic acid and the plates are air dried. Bound stain is subsequently solubilised with 10 mM trizma base, and the absorbance is read on an automated plate reader at a wavelength of 515 nm. For suspension cells, the methodology is the same except that the assay is terminated by fixing settled cells at the bottom of the wells by gently adding 50 μl of 80% TCA (final concentration, 16% TCA). Using the seven absorbance measurements [time zero, (Tz), control growth, (C), and test growth in the presence of drug at the five concentration levels (Ti)], the percentage growth is calculated at each of the drug concentrations levels. Percentage growth inhibition is calculated as: [(Ti−Tz)/(C−Tz)]×100 for concentrations for which Ti>/=Tz and [(Ti−Tz)/Tz]×100 for concentrations for which Ti<Tz.
# (§4) Three dose response parameters are calculated for each experimental agent. Growth inhibition of 50% (GI50) is calculated from [(Ti−Tz)/(C−Tz)]×100=50, which is the drug concentration resulting in a 50% reduction in the net protein increase (as measured by SRB staining) in control cells during the drug incubation. The drug concentration resulting in total growth inhibition (TGI) is calculated from Ti=Tz. The LC50 (concentration of drug resulting in a 50% reduction in the measured protein at the end of the drug treatment as compared to that at the beginning) indicating a net loss of cells following treatment is calculated from [(Ti−Tz)/Tz]×100=−50. Values are calculated for each of these three parameters if the level of activity is reached. However, if the effect is not reached or is exceeded, the value for that parameter is expressed as greater or less than the maximum or minimum concentration tested.
# SK-MEL-5 = assay: NCI screening panel, SK-MEL-5 (Melanoma)
# Method: as §1, §2, §3, §4
# SF-539 = assay: NCI screening panel, SF-539 (CNS Cancer)
# Method: as §1, §2, §3, §4
# SF-295 = assay: NCI screening panel, SF-295 (CNS Cancer)
# Method: as §1, §2, §3, §4
# OVCAR-8 = assay: NCI screening panel, OVCAR-8 (Ovarian Cancer)
# Method: as §1, §2, §3, §4
# DU-145 = assay: NCI screening panel, DU-145 (Prostate Cancer)
# Method: as §1, §2, §3, §4
# PC-3 = assay: NCI screening panel, PC-3 (Prostate Cancer)
# Method: as §1, §2, §3, §4
# UO-31 = assay: NCI screening panel, UO-31 (Renal Cancer)
# Method: as §1, §2, §3, §4
# MALME-3M = assay: NCI screening panel, MALME-3M (Melanoma)
# Method: as §1, §2, §3, §4
# UACC-62 = assay: NCI screening panel, UACC-62 (Melanoma)
# Method: as §1, §2, §3, §4
# COLO 205 = assay: NCI screening panel, COLO 205 (Colon Cancer)
# Method: as §1, §2, §3, §4
# ACHN = assay: NCI screening panel, ACHN (Renal Cancer)
# Method: as §1, §2, §3, §4
# HCC-2998 = assay: NCI screening panel, HCC-2998 (Colon Cancer)
# Method: as §1, §2, §3, §4
# OVCAR-3 = assay: NCI screening panel, OVCAR-3 (Ovarian Cancer)
# Method: as §1, §2, §3, §4
# NCI-H322M = assay: NCI screening panel, NCI-H322M (Non-Small Cell Lung Cancer)
# Method: as §1, §2, §3, §4
smiles,measurement,setting,value
"CC(C)C[C@H](NC(=O)[C@H](COC(F)F)NC(=O)CN1CCOCC1)C(=O)N[C@@H](COC(F)F)C(=O)N[C@@H](CC(C)C)C(=O)[C@@]1(C)CO1 [Example 1, (2S)—N-[(1S)-1-(difluoromethoxymethyl)-2-[[(1S)-3-methyl-1-[(2R)-2-methyloxirane-2-carbonyl]butyl]amino]-2-oxo-ethyl]-2-[[(2S)-3-(difluoromethoxy)-2-[(2-morpholinoacetyl)amino]propanoyl]amino]-4-methyl-pentanamide]",Log10GI50,SNB-19,−7.22
same,Log10LC50,SNB-19,>−4.00
same,Log10TGI50,SNB-19,>−4.00
same,Log10GI50,SK-MEL-5,−7.55
same,Log10LC50,SK-MEL-5,−6.30
same,Log10TGI50,SK-MEL-5,−6.97
same,Log10GI50,SF-539,−7.78
same,Log10LC50,SF-539,−6.62
same,Log10TGI50,SF-539,−7.35
same,Log10GI50,SF-295,−7.51
same,Log10LC50,SF-295,−6.09
same,Log10TGI50,SF-295,−6.88
same,Log10GI50,OVCAR-8,−6.85
same,Log10LC50,OVCAR-8,>−4.00
same,Log10TGI50,OVCAR-8,>−4.00
same,Log10GI50,DU-145,−7.25
same,Log10LC50,DU-145,>−4.00
same,Log10TGI50,DU-145,−4.66
same,Log10GI50,PC-3,−7.49
same,Log10TGI50,PC-3,−6.81
same,Log10GI50,UO-31,−5.70
same,Log10LC50,UO-31,>−4.00
same,Log10TGI50,UO-31,−4.86
same,Log10GI50,MALME-3M,−7.39
same,Log10LC50,MALME-3M,>−4.00
same,Log10TGI50,MALME-3M,−6.49
same,Log10GI50,UACC-62,−7.60
same,Log10LC50,UACC-62,>−4.00
same,Log10TGI50,UACC-62,−6.95
same,Log10GI50,COLO 205,−7.39
same,Log10LC50,COLO 205,−5.59
same,Log10TGI50,COLO 205,−6.72
same,Log10GI50,ACHN,−6.34
same,Log10LC50,ACHN,>−4.00
same,Log10TGI50,ACHN,>−4.00
same,Log10GI50,HCC-2998,−7.74
same,Log10LC50,HCC-2998,−7.16
same,Log10TGI50,HCC-2998,−7.45
same,Log10GI50,OVCAR-3,−7.69
same,Log10LC50,OVCAR-3,−6.91
same,Log10TGI50,OVCAR-3,−7.34
same,Log10GI50,NCI-H322M,−7.19
same,Log10LC50,NCI-H322M,−4.86
same,Log10TGI50,NCI-H322M,−6.45
"CC(C)C[C@H](NC(=O)[C@H](COC(F)F)NC(=O)CN1CCOCC1)C(=O)N[C@@H](Cc1ccccc1)C(=O)N[C@@H](CC(C)C)C(=O)[C@@]1(C)CO1 [Example 2, (2S)-N-[(1S)-1-benzyl-2-[[(1S)-3-methyl-1-[(2R)-2-methyloxirane-2-carbonyl]butyl]-amino]-2-oxo-ethyl]-2-[[(2S)-3-(difluoromethoxy)-2-[(2-morpholinoacetyl)amino]propanoyl]amino]-4-methyl-pentanamide]",Log10GI50,SNB-19,−7.18
same,Log10LC50,SNB-19,>−4.00
same,Log10TGI50,SNB-19,>−4.00
same,Log10GI50,SK-MEL-5,−7.53
same,Log10LC50,SK-MEL-5,−6.23
same,Log10TGI50,SK-MEL-5,−6.94
same,Log10GI50,SF-539,−7.87
same,Log10LC50,SF-539,−7.06
same,Log10TGI50,SF-539,−7.46
same,Log10GI50,SF-295,−7.80
same,Log10LC50,SF-295,−6.42
same,Log10TGI50,SF-295,−7.28
same,Log10GI50,OVCAR-8,−7.22
same,Log10LC50,OVCAR-8,>−4.00
same,Log10TGI50,OVCAR-8,−6.25
same,Log10GI50,DU-145,−7.34
same,Log10LC50,DU-145,>−4.00
same,Log10TGI50,DU-145,−5.00
same,Log10GI50,PC-3,−7.57
same,Log10LC50,PC-3,−5.62
same,Log10TGI50,PC-3,−6.93
same,Log10GI50,UO-31,−6.49
same,Log10LC50,UO-31,−5.01
same,Log10TGI50,UO-31,−5.80
same,Log10GI50,UACC-62,−7.59
same,Log10LC50,UACC-62,>−4.00
same,Log10TGI50,UACC-62,−6.82
same,Log10GI50,COLO 205,−7.44
same,Log10LC50,COLO 205,−5.93
same,Log10TGI50,COLO 205,−6.69
same,Log10GI50,ACHN,−6.71
same,Log10LC50,ACHN,>−4.00
same,Log10TGI50,ACHN,>−4.00
same,Log10GI50,HCC-2998,−7.77
same,Log10LC50,HCC-2998,−7.15
same,Log10TGI50,HCC-2998,−7.46
same,Log10GI50,OVCAR-3,−7.80
same,Log10LC50,OVCAR-3,−6.64
same,Log10TGI50,OVCAR-3,−7.34
same,Log10GI50,NCI-H322M,−7.01
same,Log10LC50,NCI-H322M,−5.35
same,Log10TGI50,NCI-H322M,−6.43
"CC(C)C[C@H](NC(=O)[C@H](COC(F)F)NC(=O)CN1CCOCC1)C(=O)N[C@@H](Cc1ccccc1)C(=O)N[C@@H](Cc1ccccc1)C(=O)[C@@]1(C)CO1 [Example 3, (2S)-N-[(1S)-1-benzyl-2-[[(1S)-1-benzyl-2-[(2R)-2-methyloxiran-2-yl]-2-oxo-ethyl]amino]-2-oxo-ethyl]-2-[[(2S)-3-(difluoromethoxy)-2-[(2-morpholinoacetyl)-amino]propanoyl]amino]-4-methyl-pentan-amide]",Log10GI50,SNB-19,−7.66
same,Log10LC50,SNB-19,>−4.00
same,Log10TGI50,SNB-19,−4.54
same,Log10GI50,SK-MEL-5,−7.71
same,Log10LC50,SK-MEL-5,−6.43
same,Log10TGI50,SK-MEL-5,−7.19
same,Log10GI50,SF-539,<−8.00
same,Log10LC50,SF-539,−4.07
same,Log10TGI50,SF-539,−7.42
same,Log10GI50,SF-295,−7.34
same,Log10LC50,SF-295,−6.24
same,Log10TGI50,SF-295,−6.75
same,Log10GI50,OVCAR-8,−7.25
same,Log10LC50,OVCAR-8,>−4.00
same,Log10TGI50,OVCAR-8,−6.29
same,Log10GI50,DU-145,<−8.00
same,Log10LC50,DU-145,−4.48
same,Log10TGI50,DU-145,−5.79
same,Log10GI50,PC-3,−7.73
same,Log10LC50,PC-3,−6.09
same,Log10TGI50,PC-3,−7.04
same,Log10GI50,UO-31,−6.65
same,Log10LC50,UO-31,−5.08
same,Log10TGI50,UO-31,−5.91
same,Log10GI50,MALME-3M,−7.65
same,Log10LC50,MALME-3M,>−4.00
same,Log10TGI50,MALME-3M,−7.07
same,Log10GI50,UACC-62,−7.93
same,Log10LC50,UACC-62,−6.13
same,Log10TGI50,UACC-62,−7.17
same,Log10GI50,COLO 205,−7.73
same,Log10LC50,COLO 205,−4.53
same,Log10TGI50,COLO 205,−6.48
same,Log10GI50,ACHN,−7.13
same,Log10LC50,ACHN,>−4.00
same,Log10TGI50,ACHN,>−4.00
same,Log10GI50,HCC-2998,−7.78
same,Log10LC50,HCC-2998,−7.18
same,Log10TGI50,HCC-2998,−7.48
same,Log10GI50,OVCAR-3,<−8.00
same,Log10LC50,OVCAR-3,−6.36
same,Log10TGI50,OVCAR-3,−7.25
same,Log10GI50,NCI-H322M,−7.12
same,Log10LC50,NCI-H322M,−5.14
same,Log10TGI50,NCI-H322M,−6.44
